Measured values taken from publication PMC6271559, “Synthesis and Evaluation of 2,4-Disubstituted Quinazoline Derivatives with Potent Anti-Angiogenesis Activities” (Molecules, 2014).
Like-named read-outs stand apart in the source and are kept apart here.

Columns and labels:
[1] = tested on: PC-3 (human prostatic carcinoma) cells; test: MTT cytotoxicity assay, PC-3; type: cell-based; settings: Prostatic carcinoma cell, 48 h, mean of three independent assays
Text: (§1) In the early 80s, scientists proposed anti-angiogenesis as a potential target in cancer therapy. Much research in the past 30 years has targeted tumor angiogenesis as a means of inhibiting the process of tumor-caused blood vessel formation. Endothelial cells, which come from the inner lining of blood vessels, makes up a fundamental part of new blood vessels as well as pre-existing ones. A complete angiogenesis process includes the proliferation, migration, and differentiation of endothelial cells, so a great deal of angiogenesis inhibitors discovered to date target endothelial cells. We thus employed a cell proliferation assay to evaluate the cytotoxicity of quinazoline derivatives against both normal (HUVEC) and tumor cell lines (CNE-2, PC-3, and SMMC-7721 cell lines) so we can screen some molecules that have cytotoxicity against tumor cells but low cytotoxicity against HUVECs. Meanwhile, an appropriate concentration range of these compounds could be determined to further study their inhibitive effects against the proliferation, migration, and differentiation of HUVECs. The cytotoxic activities of quinazoline derivatives against human tumor cell lines CNE-2 (human nasopharyngeal cancer), PC-3 (human prostatic carcinoma), SMMC-7721 (human liver cancer) and Human Umbilical Vein Endothelial Cells (HUVECs) were determined by using the MTT cytotoxicity assay.
(§2) HUVEC, CNE-2, PC-3, and 7721 cell lines were seeded on 96-well plates at a concentration of 5,000 cells per well and exposed to various concentrations of quinazoline derivatives. After 48 h of treatment at 37 °C in a humidified atmosphere of 5% CO2, 5 mg/mL MTT solution (10 μL) was added to each well and further incubated for 4 h. Each well was then added dimethyl sulfoxide (DMSO, 100 μL), and the optical density (OD) was recorded at 490 nm. All measurements were done in triplicate, and the IC50 values were derived from the mean OD values of the triplicate tests versus drug concentration curves.

[2] = tested on: HUVEC adhesion to collagen; test: HUVEC adhesion assay on type I collagen; type: cell-based, human; settings: adhesion of HUVEC on collagen, 37 °C; for inhibition at 15 µM / inhibition at 30 µM: Homo sapiens, HUVEC
Text: A perfect angiogenesis inhibitor must be show lower toxicity toward HUVECs, while showing high inhibitive capability towards the proliferation, migration, and differentiation of HUVECs. To assess the inhibitory effects of 2,4-disubstituted quinazoline derivatives, three assays were used: HUVEC adhesion assay, HUVEC migration assay and CAM assay. Firstly, to test the inhibitory effects of quinazoline derivatives on the attachment of endothelial cells to type I collagen, cell adhesion assays were carried out.
Cell adhesion assay was carried out by a reported method with slight modification. Wells of a 96-well plate were coated at room temperature overnight with rat trail tendon collagen type I (2 μg) in PBS in a final volume of 100 μL. The wells were washed three times with PBS ([…]) and then blocked with 0.2% bovine serum albumin (BSA) in PBS ([…]) for 2 h at 37 °C in a cell culture incubator. The wells were then washed three times with PBS ([…]). HUEVCs were detached from the dish, resuspended in DMEM, and added (50 μL, 10^4 cells/mL) to each well followed by the related compounds (50 μL) at various concentrations. The plates were incubated for 1 h or 3 h at 37 °C and then washed three times with PBS (100 μL). The attached cells were fixed and stained with 0.2 % crystal violet in 20% methanol for 10 min, then washed three times with PBS ([…]). The cells were solubilized by 2% SDS and the OD was measured at 570 nm. Attachment was determined by both 1 and 3 h as described above. Each compound was tested in triplicate and each experiment was repeated three times.

[3] = MTT cytotoxicity assay, HUVEC; type: cell-based; settings: human, HUVEC (human umbilical vein endothelial cells), mean of three independent assays
Text: as §1, §2

[4] = tested on: CNE-2 (human nasopharyngeal cancer) cells; test: MTT cytotoxicity assay, CNE-2; type: cell-based; settings: 48 h, mean of three independent assays
Text: as §1, §2

[5] = tested on: SMMC-7721 (human liver cancer) cells; test: MTT cytotoxicity assay, SMMC-7721; type: cell-based; settings: 48 h, mean of three independent assays
Text: as §1, §2

[6] = tested on: chick embryo chorioallantoic membrane (CAM); test: CAM angiogenesis assay; type: in vivo; settings: 30 μg/10 μL on filter disc, 48 h
Protocol: CAMs treated with 0.9% NaCl solution (negative control) were surrounded by all antoic vessels as newly-formed capillaries converging radially toward the sponge in a “spoked wheel” pattern (number of vessels 24 ± 3).
The in vivo CAM angiogenesis model as initially described by Folkman and then modified by Maragoudakis was used. Fertilized chicken eggs were used after incubating them for 8 days. A 1 cm × 1 cm window was made in the shell to create a pocket to expose the CAM. A filter disc with 0.9% NaCl solution or 30 μg/10 μL of compounds was then placed upon the CAM from 10 eggs per treatment and 48 h later, the CAMs were fixed with 4% paraformaldehyde and the vessel number from three random fields around the filter disc were pictured using a microscope.

[7] = 1 h, 1 h, 15 μM, read-out: 1 h Inhibition Rate % Dose 15 μM
[8] = 1 h, 1 h, 30 μM, read-out: 1 h Inhibition Rate % Dose 30 μM
[9] = 3 h, 3 h, 15 μM, read-out: 3 h Inhibition Rate % Dose 15 μM
[10] = 3 h, 3 h, 30 μM, read-out: 3 h Inhibition Rate % Dose 30 μM

melting point [°C] | Compound | IC50 [1] [µM] | inhibition at 15 µM [2, 7] [%] | inhibition at 30 µM [2, 8] [%] | inhibition at 15 µM [2, 9] [%] | inhibition at 30 µM [2, 10] [%] | IC50 at 48 h [3] [µM] | IC50 [4] [µM] | IC50 [5] [µM] | 3 h Inhibition Rate % Dose 15 μM ([2]; 3 h, 15 μM) [%] | 3 h Inhibition Rate % Dose 30 μM ([2]; 3 h, 30 μM) [%] | inhibition of angiogenesis in CAM assay [6]
180 to 182 | CN(C)CCCNc1nc(-c2ccccc2NC(=O)CN2CCCCC2)nc2ccccc12 [Compound 10a, N-(2-(4-(3-(Dimethylamino)propylamino)quinazolin-2-yl)phenyl)-2-(piperidin-1-yl)acetamide] | 16.8 ± 0.1 | 26.7 ± 0.1 | 31.6 ± 0.3 | 29.2 ± 0.2 | 37.6 ± 0.1 | 45.7 ± 0.2 | 13.6 ± 0.2 | 18.1 ± 0.2 |  |  | 
174 to 175 | CN(C)CCCNc1nc(-c2ccccc2NC(=O)CN2CCCC2)nc2ccccc12 [Compound 10b, N-(2-(4-(3-(dimethylamino)propylamino)quinazolin-2-yl)phenyl)-2-(pyrrolidin-1-yl)acetamide] | 16.7 ± 0.2 | 28.3 ± 0.1 | 33 ± 0.2 | 27.8 ± 0.2 | 34.8 ± 0.2 | 39.3 ± 0.3 | 14.9 ± 0.2 | 17.9 ± 0.4 |  |  | 
 | CCN(CC)CC(=O)Nc1ccccc1-c1nc(NCCCN(C)C)c2ccccc2n1 [Compound 10c, N-(2-(4-(3-(Dimethylamino)propylamino)quinazolin-2-yl)phenyl)-2-(diethylamino)acetamide] | 17.6 ± 0.1 | 18.9 ± 0.3 | 27.8 ± 0.2 | 16.4 ± 0.4 | 29.5 ± 0.1 | 56.2 ± 0.2 | 17.1 ± 0.4 | 19.4 ± 0.1 |  |  | 
174 to 175 | CN(C)CCCNc1nc(-c2ccccc2NC(=O)CN2CCN(C)CC2)nc2ccccc12 [Compound 10d, N-(2-(4-(3-(Dimethylamino)propylamino)quinazolin-2-yl)phenyl)-2-(4-methylpiperazin-1-yl)acetamide] | 11.3 ± 0.5 | 34.8 ± 0.2 | 44.6 ± 0.4 |  | 63.4 | 38.7 ± 0.1 | 10.5 ± 0.3 | 10.4 ± 0.1 | 32.5 ± 0.4 | 47.2 ± 0.1 | 
179 to 181 | CN(C)CCCNc1nc(-c2ccccc2NC(=O)CN2CCOCC2)nc2ccccc12 [Compound 10e, N-(2-(4-(3-(Dimethylamino)propylamino)quinazolin-2-yl)phenyl)-2-morpholinoacetamide] | 20.5 ± 0.3 |  | 14.3 ± 0.1 | 7.9 ± 0.3 | 17.6 ± 0.3 | 79.8 ± 0.1 | 19.7 ± 0.2 | 22.6 ± 0.2 |  |  | 
178 to 179 | CN(C)CCCNc1nc(-c2ccccc2NC(=O)CCN2CCCCC2)nc2ccccc12 [Compound 11a, N-(2-(4-(3-(Dimethylamino)propylamino)quinazolin-2-yl)phenyl)-3-(piperidin-1-yl)propanamide] | 18.1 ± 0.2 | 37.4 ± 0.3 | 49.6 ± 0.5 | 38.2 ± 0.1 | 59.3 ± 0.1 | 57.4 ± 0.5 | 14.2 ± 0.1 | 19.9 ± 0.4 |  |  | 
163 to 165 | CN(C)CCCNc1nc(-c2ccccc2NC(=O)CCN2CCCC2)nc2ccccc12 [Compound 11b, N-(2-(4-(3-(Dimethylamino)propylamino)quinazolin-2-yl)phenyl)-3-(pyrrolidin-1-yl)propanamide] | 17.4 ± 0.1 | 35.4 ± 0.3 | 54.3 ± 0.3 | 35.2 ± 0.3 | 51.7 ± 0.2 | 46.3 ± 0.3 | 14.3 ± 0.1 | 15.1 ± 0.2 |  |  | 
158 to 160 | CCN(CC)CCC(=O)Nc1ccccc1-c1nc(NCCCN(C)C)c2ccccc2n1 [Compound 11c, N-(2-(4-(3-(Dimethylamino)propylamino)quinazolin-2-yl)phenyl)-3-(diethylamino)propanamide] | 18.7 ± 0.3 | 29.9 ± 0.2 | 38.7 ± 0.2 | 29.4 ± 0.2 | 36.3 ± 0.4 | 66.8 ± 0.3 | 16.8 ± 0.4 | 13.8 ± 0.1 |  |  | 
165 to 167 | CN(C)CCCNc1nc(-c2ccccc2NC(=O)CCN2CCOCC2)nc2ccccc12 [Compound 11e, N-(2-(4-(3-(Dimethylamino)propylamino)quinazolin-2-yl)phenyl)-3-morpholinopropanamide] | 19.6 ± 0.2 | 27.4 ± 0.3 | 32.3 ± 0.2 | 25.6 ± 0.3 | 36.4 ± 0.3 | 84.9 ± 0.3 | 20.1 ± 0.2 | 20.9 ± 0.3 |  |  | 
159 to 160 | CN(C)CCCNc1nc(-c2ccccc2NC(=O)CCCN2CCCCC2)nc2ccccc12 [Compound 12a, N-(2-(4-(3-(Dimethylamino)propylamino)quinazolin-2-yl)phenyl)-4-(piperidin-1-yl)butanamide] | 17.7 ± 0.2 | 33.6 ± 0.2 | 57.9 ± 0.3 | 40.6 ± 0.3 | 61.2 ± 0.3 | 41.7 ± 0.3 | 17.3 ± 0.3 | 16.5 ± 0.1 |  |  | 
 | CN(C)CCCNc1nc(-c2ccccc2NC(=O)CCCN2CCCC2)nc2ccccc12 [Compound 12b] | 18.9 ± 0.4 | 29.8 ± 0.1 | 49.3 ± 0.1 | 38.4 ± 0.2 | 60.1 ± 0.2 | 39.4 ± 0.1 | 16.4 ± 0.3 | 15.3 ± 0.2 |  |  | 
155 to 157 | CN(C)CCCNc1nc(-c2ccccc2NC(=O)CCCN2CCN(C)CC2)nc2ccccc12 [Compound 12d, N-(2-(4-(3-(Dimethylamino)propylamino)quinazolin-2-yl)phenyl)-4-(4-methylpiperazin-1-yl)butanami-de] | 10.9 ± 0.2 | 46.8 ± 0.2 | 63.7 ± 0.2 | 47.5 ± 0.3 | 63.4 ± 0.3 | 40.2 ± 0.2 | 11.4 ± 0.1 | 10.3 ± 0.5 |  |  | excellent inhibition of angiogenesis
152 to 154 | CN(C)CCCNc1nc(-c2ccccc2NC(=O)CCCN2CCOCC2)nc2ccccc12 [Compound 12e, N-(2-(4-(3-(Dimethylamino)propylamino)quinazolin-2-yl)phenyl)-4-morpholinobutanamide] | 21.9 ± 0.2 | 26.5 ± 0.2 | 34.7 ± 0.2 | 17.2 ± 0.4 | 39.4 ± 0.2 | 76.3 ± 0.2 | 20.6 ± 0.2 | 20.8 ± 0.3 |  |  | 
